In the Kinase Knowledgebase extract (Sharma et al. 2016):
“And” between values parts separate entries of the source, which are not always exact repeats. Identical values can stand only once.

What follows are molecules tested against PIK3CD (Human) (UniProt O00329) (assay: Inhibition of PIK3CD Kinase Activity (AlphaScreen Assay)).
Sequence of PIK3CD (Human) (O00329 whole entry, looked up): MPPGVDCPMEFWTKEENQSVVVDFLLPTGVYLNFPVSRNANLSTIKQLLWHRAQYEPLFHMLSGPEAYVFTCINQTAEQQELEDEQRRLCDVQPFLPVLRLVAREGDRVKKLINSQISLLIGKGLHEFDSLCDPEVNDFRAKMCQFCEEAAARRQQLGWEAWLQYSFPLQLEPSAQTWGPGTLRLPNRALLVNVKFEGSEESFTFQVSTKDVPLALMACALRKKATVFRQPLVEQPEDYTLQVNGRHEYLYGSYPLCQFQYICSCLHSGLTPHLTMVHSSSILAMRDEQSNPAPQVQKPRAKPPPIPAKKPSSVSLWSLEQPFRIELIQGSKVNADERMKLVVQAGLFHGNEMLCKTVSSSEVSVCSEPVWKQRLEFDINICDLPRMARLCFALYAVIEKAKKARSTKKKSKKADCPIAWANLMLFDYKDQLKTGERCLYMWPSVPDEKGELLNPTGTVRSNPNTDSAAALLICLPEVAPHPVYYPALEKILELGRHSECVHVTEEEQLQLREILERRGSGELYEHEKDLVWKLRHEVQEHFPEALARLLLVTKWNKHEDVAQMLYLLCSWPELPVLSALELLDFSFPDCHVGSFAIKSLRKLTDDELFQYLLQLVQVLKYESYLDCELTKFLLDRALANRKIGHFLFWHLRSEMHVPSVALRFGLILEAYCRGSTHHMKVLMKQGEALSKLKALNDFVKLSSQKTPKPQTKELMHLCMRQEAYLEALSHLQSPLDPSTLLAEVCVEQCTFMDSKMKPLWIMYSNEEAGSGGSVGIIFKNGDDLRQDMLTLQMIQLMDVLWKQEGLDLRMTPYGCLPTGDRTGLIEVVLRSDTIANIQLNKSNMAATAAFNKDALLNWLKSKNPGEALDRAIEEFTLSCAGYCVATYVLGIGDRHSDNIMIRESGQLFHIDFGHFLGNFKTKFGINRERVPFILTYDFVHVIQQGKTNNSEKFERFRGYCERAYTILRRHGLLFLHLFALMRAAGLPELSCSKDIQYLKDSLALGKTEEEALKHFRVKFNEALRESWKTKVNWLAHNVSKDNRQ

Row | SMILES | IC50
1 | Cc1csc2nc(C(C)Nc3nc(N)nc4[nH]cnc34)c(-c3cccc(F)c3)c(=O)n12 (configuration not stated) | < 0.05 µM
2 | CCC(Nc1ncnc2[nH]cnc12)c1nc2cccc(C)n2c(=O)c1-c1cccnc1F (configuration not stated) | 0.1 to 0.5 µM
3 | Cc1csc2nc(C(C)Nc3nc(N)nc4[nH]cnc34)c(-c3cc(F)cc(F)c3)c(=O)n12 (configuration not stated) | < 0.05 µM
4 | Cc1csc2nc(C(C)Nc3ncnc4[nH]cnc34)c(-c3ccccn3)c(=O)n12 (configuration not stated) | 0.05 to 0.1 µM
5 | Cc1csc2nc(C(C)Nc3nc(N)nc4[nH]cnc34)c(-c3ccccc3)c(=O)n12 (configuration not stated) | < 0.05 µM
6 | CCC(Nc1ncnc2[nH]cnc12)c1nc2cccc(C)n2c(=O)c1-c1cncc(F)c1 (configuration not stated) | 0.1 to 0.5 µM
7 | Cc1csc2nc(C(C)Nc3ncnc4[nH]cnc34)c(-c3cc(F)cc(F)c3)c(=O)n12 (configuration not stated) | < 0.05 µM
8 | Cc1cccc2nc(C(C)n3cnc4c(N)ncnc43)c(-c3ccccc3)c(=O)n12 (configuration not stated) | 0.1 to 0.5 µM

The molecules below were run against PIK3CD (Human) (UniProt O00329) (assay: Inhibition of PIK3CD Kinase Activity (Scintillation Proximity Assay)).

Row | SMILES | IC50
9 | Cc1csc2nc(C(C)Nc3nc(N)nc4[nH]cnc34)c(-c3cc(F)cc(F)c3)c(=O)n12 (configuration not stated) | < 0.05 µM
10 | Cc1csc2nc(C(C)Nc3ncnc4[nH]cnc34)c(-c3cccc(F)c3F)c(=O)n12 (configuration not stated) | 0.05 to 0.1 µM
11 | Cc1csc2nc(C(C)Nc3ncnc4[nH]ccc34)c(-c3cc(F)cc(F)c3)c(=O)n12 (configuration not stated) | 0.1 to 0.5 µM
12 | CC(Nc1ncnc2[nH]cnc12)c1nc2scc(C(F)(F)F)n2c(=O)c1-c1cccc(F)c1 (configuration not stated) | 0.05 to 0.1 µM
13 | Cc1cccc(-c2c(C(C)Nc3ncnc4[nH]cnc34)nc3cccc(C)n3c2=O)c1 (configuration not stated) | 0.1 to 0.5 µM
14 | CCc1cccc2nc(C(C)Nc3ncnc4[nH]cnc34)c(-c3cc(F)cc(F)c3)c(=O)n12 (configuration not stated) | 0.1 to 0.5 µM
15 | CCC(Nc1ncnc2[nH]cnc12)c1nc2cccc(C)n2c(=O)c1-c1ccccc1 (configuration not stated) | < 0.05 µM
16 | Cc1cccc2nc(C(C)Nc3nc(N)nc4[nH]cnc34)c(-c3ccccc3)c(=O)n12 (configuration not stated) | < 0.05 µM
17 | CCC(Nc1ncnc2[nH]cnc12)c1nc2cccc(C)n2c(=O)c1-c1cc(F)cc(F)c1 (configuration not stated) | 0.05 to 0.1 µM
18 | CC(Nc1nc(N)nc2[nH]cnc12)c1nc2sccn2c(=O)c1-c1ccccc1 (configuration not stated) | 0.1 to 0.5 µM
19 | Cc1csc2nc(C(C)Nc3ncnc4[nH]cnc34)c(-c3cncc(F)c3)c(=O)n12 (configuration not stated) | 0.1 to 0.5 µM
20 | Cc1csc2nc(C(C)Nc3ncnc4[nH]cnc34)c(-c3ccccc3Cl)c(=O)n12 (configuration not stated) | 0.1 to 0.5 µM and < 0.05 µM
21 | Cc1ccccc1-c1c(C(C)Nc2ncnc3[nH]cnc23)nc2cccc(C)n2c1=O (configuration not stated) | 0.1 to 0.5 µM
22 | Cc1csc2nc(C(C)Nc3nc(N)nc4[nH]cnc34)c(-c3ccccc3F)c(=O)n12 (configuration not stated) | < 0.05 µM
23 | CC(Nc1nc(N)nc2[nH]cnc12)c1nc2ccccn2c(=O)c1-c1cc(F)cc(F)c1 (configuration not stated) | 0.1 to 0.5 µM
24 | Cc1csc2nc(C(C)Nc3nc(N)nc4[nH]cnc34)c(-c3cccc(F)c3F)c(=O)n12 (configuration not stated) | < 0.05 µM
25 | Cc1cccc2nc(C(C)Nc3ncnc4[nH]cnc34)c(-c3cccc(F)c3)c(=O)n12 (configuration not stated) | < 0.05 µM
26 | Cc1csc2nc(C(C)Nc3ncnc4[nH]cnc34)c(-c3cc(F)cc(F)c3)c(=O)n12 (configuration not stated) | < 0.05 µM
27 | Cc1csc2nc(C(C)Nc3nc(N)nc4[nH]cnc34)c(-c3cncc(F)c3)c(=O)n12 (configuration not stated) | 0.05 to 0.1 µM
28 | Cc1ccc(-c2c(C(C)Nc3ncnc4[nH]cnc34)nc3scc(C)n3c2=O)cc1 (configuration not stated) | 0.1 to 0.5 µM
29 | Cc1cccc2nc(C(C)Nc3nc(N)nc4[nH]cnc34)c(-c3ccccc3Cl)c(=O)n12 (configuration not stated) | < 0.05 µM
30 | Cc1csc2nc(C(C)Nc3ncnc4[nH]cnc34)c(-c3ccccc3)c(=O)n12 (configuration not stated) | < 0.05 µM
31 | Cc1cccc2nc(C(C)Nc3ncnc4[nH]cnc34)c(-c3cccc(C#N)c3)c(=O)n12 (configuration not stated) | 0.1 to 0.5 µM
32 | Cc1cccc2nc(C(C)Nc3nc(N)nc4[nH]cnc34)c(-c3cccc(F)c3)c(=O)n12 (configuration not stated) | < 0.05 µM
33 | Cc1csc2nc(C(C)Nc3nc(N)nc4[nH]cnc34)c(-c3ccccc3Cl)c(=O)n12 (configuration not stated) | 0.1 to 0.5 µM and < 0.05 µM

These molecules were tested against PIK3CD (Human) (UniProt O00329) (assay: Inhibition of PIK3CD Kinase Activity).

Row | SMILES | IC50
34 | Cc1csc2nc(C(C)Nc3ncnc4[nH]cnc34)c(-c3cc(F)cc(F)c3)c(=O)n12 (configuration not stated) | < 0.05 µM

The molecules below were run against PIK3CD (Human) (UniProt O00329) (assay: Inhibition of PIK3CD Kinase Activity in Pfeiffer Cells).

Row | SMILES | IC50
35 | Cc1cccc2nc(C(C)Nc3ncnc4[nH]cnc34)c(-c3cccc(Cl)c3)c(=O)n12 (configuration not stated) | 0.05 to 0.1 µM
36 | CCc1cccc2nc(C(C)Nc3nc(N)nc4[nH]cnc34)c(-c3cc(F)cc(F)c3)c(=O)n12 (configuration not stated) | < 0.05 µM
37 | Cc1ccc(-c2c(C(C)Nc3ncnc4[nH]cnc34)nc3cccc(C)n3c2=O)cc1 (configuration not stated) | 0.05 to 0.1 µM
38 | Cc1csc2nc(C(C)Nc3ncnc4[nH]cnc34)c(-c3cscn3)c(=O)n12 (configuration not stated) | 0.05 to 0.1 µM
39 | Cc1csc2nc(C(C)Nc3ncnc4[nH]cnc34)c(-c3ccc(F)cc3)c(=O)n12 (configuration not stated) | 0.1 to 0.5 µM
40 | Cc1csc2nc(C(C)Nc3nc(N)nc4[nH]cnc34)c(-c3cccc(Cl)c3)c(=O)n12 (configuration not stated) | < 0.05 µM
41 | Cc1csc2nc(C(C)Nc3nc(N)nc4[nH]cnc34)c(-c3cc(F)cc(F)c3)c(=O)n12 (configuration not stated) | < 0.05 µM
42 | Cc1cccc2nc(C(C)Nc3ncnc4[nH]cnc34)c(-c3ccccc3)c(=O)n12 (configuration not stated) | 0.05 to 0.1 µM
43 | Cc1cccc2nc(C(C)Nc3ncnc4[nH]cnc34)c(-c3cc(F)ccc3F)c(=O)n12 (configuration not stated) | 0.05 to 0.1 µM
44 | Cc1csc2nc(C(C)Nc3ncnc4[nH]cnc34)c(-c3cc(F)ccc3F)c(=O)n12 (configuration not stated) | 0.05 to 0.1 µM
45 | Cc1cccc(-c2c(C(C)Nc3nc(N)nc4[nH]cnc34)nc3cccc(C)n3c2=O)c1 (configuration not stated) | 0.05 to 0.1 µM
46 | CCc1cccc2nc(C(C)Nc3ncnc4[nH]cnc34)c(-c3ccc(F)cc3)c(=O)n12 (configuration not stated) | 0.1 to 0.5 µM
47 | Cc1cccc2nc(C(C)Nc3ncnc4[nH]cnc34)c(-c3ccccc3Cl)c(=O)n12 (configuration not stated) | 0.05 to 0.1 µM
48 | Cc1cccc2nc(C(C)Nc3ncnc4[nH]cnc34)c(-c3ccccc3F)c(=O)n12 (configuration not stated) | 0.1 to 0.5 µM
49 | Cc1csc2nc(C(C)Nc3nc(F)nc4[nH]cnc34)c(-c3cc(F)cc(F)c3)c(=O)n12 (configuration not stated) | 0.05 to 0.1 µM
50 | Cc1cccc2nc(C(C)Nc3nc(N)nc4[nH]cnc34)c(-c3ccc(C#N)cc3)c(=O)n12 (configuration not stated) | 0.5 to 1 µM
51 | Cc1cccc2nc(C(C)Nc3nc(N)nc4[nH]cnc34)c(-c3ccccc3F)c(=O)n12 (configuration not stated) | 0.05 to 0.1 µM

Row | SMILES | IC50
52 | Cc1cccc2nc(C(C)Nc3nc(N)nc4[nH]cnc34)c(-c3cccc(C#N)c3)c(=O)n12 (configuration not stated) | 0.1 to 0.5 µM
53 | CCC(Nc1ncnc2[nH]cnc12)c1nc2cccc(C)n2c(=O)c1-c1cn[nH]c1 (configuration not stated) | 0.5 to 1 µM
54 | Cc1cccc2nc(C(C)Nc3ncnc4[nH]cnc34)c(-c3cc(F)cc(F)c3)c(=O)n12 (configuration not stated) | 0.05 to 0.1 µM
55 | Cc1csc2nc(C(C)Nc3ncnc4[nH]cnc34)c(-c3ccccc3Cl)c(=O)n12 (configuration not stated) | 0.1 to 0.5 µM and < 0.05 µM
56 | Cc1csc2nc(C(C)Nc3ncnc4[nH]cnc34)c(-c3cc(F)cc(Cl)c3)c(=O)n12 (configuration not stated) | 0.05 to 0.1 µM
57 | Cc1cccc2nc(C(C)Nc3ncnc4[nH]cnc34)c(-c3ccc(F)c(F)c3)c(=O)n12 (configuration not stated) | 0.5 to 1 µM
58 | COc1cccc(-c2c(C(C)Nc3ncnc4[nH]cnc34)nc3cccc(C)n3c2=O)c1 (configuration not stated) | 0.05 to 0.1 µM
59 | Cc1cccc2nc(C(C)Nc3nc(N)nc4[nH]cnc34)c(-c3cccc(Cl)c3)c(=O)n12 (configuration not stated) | 0.05 to 0.1 µM
60 | Cc1csc2nc(C(C)Nc3ncnc4[nH]cnc34)c(-c3cc(F)cc(F)c3)c(=O)n12 (configuration not stated) | 0.1 to 0.5 µM
61 | Cc1csc2nc(C(C)Nc3ncnc4[nH]cnc34)c(-c3cccc(Cl)c3)c(=O)n12 (configuration not stated) | 0.05 to 0.1 µM
62 | Cc1cccc2nc(C(C)Nc3ncnc4[nH]cnc34)c(-c3cccc(F)c3F)c(=O)n12 (configuration not stated) | 0.1 to 0.5 µM
63 | Cc1csc2nc(C(C)Nc3ncnc4[nH]cnc34)c(-c3nccs3)c(=O)n12 (configuration not stated) | 0.05 to 0.1 µM
64 | Cc1csc2nc(C(C)Nc3nc(N)nc4[nH]cnc34)c(-c3cc(F)cc(Cl)c3)c(=O)n12 (configuration not stated) | < 0.05 µM
65 | Cc1csc2nc(C(C)Nc3ncnc4[nH]cnc34)c(-c3ccccc3F)c(=O)n12 (configuration not stated) | 0.05 to 0.1 µM
66 | CCC(Nc1ncnc2[nH]cnc12)c1nc2cccc(C)n2c(=O)c1-c1cccc(F)c1 (configuration not stated) | 0.1 to 0.5 µM
67 | Cc1csc2nc(C(C)Nc3nc(N)nc4[nH]cnc34)c(-c3ccccc3Cl)c(=O)n12 (configuration not stated) | < 0.05 µM and 0.1 to 0.5 µM
